# Experimental data taken from ChEMBL document CHEMBL1201862, “PubChem BioAssay data set” (2004).
#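 Where inhibition never reached the appropriate level, the endpoint shown equals the highest concentration tested. Otherwise, values were interpolated linearly from a five-concentration, 48-hour dose response in 96-well plates. Here, GI50 denotes the concentration required for 50% inhibition of growth.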 Calls of active or inactive are those of the source. Cut-off read from the data, not from the text of the source: active = GI50 up to about 1.1 µM and inactive = higher.
# Assays:
# Experiment in all cases: DTP human tumour cell line panel, 48 h
# [1] = system: OVCAR-3
# [2] = system: ACHN
# [3] = system: RXF 393
# [4] = system: HL-60
# [5] = system: OVCAR-4
# [6] = system: A549
# [7] = system: HCT-116
# [8] = system: NCI-H460
# [9] = system: RPMI-8226
# [10] = system: SN12C
# [11] = system: NCI-H23
# [12] = system: M14
# [13] = system: SW-620
# [14] = system: PC-3
# [15] = system: MDA-MB-435
# [16] = system: SF-295
# [17] = system: NCI-H226
# [18] = system: KM12
# [19] = system: A498
# [20] = system: SK-MEL-2
Structure (SMILES),GI50 [1],GI50 [2],GI50 [3],GI50 [4],GI50 [5],GI50 [6],GI50 [7],GI50 [8],GI50 [9],GI50 [10],GI50 [11],GI50 [12],GI50 [13],GI50 [14],GI50 [15],GI50 [16],GI50 [17],GI50 [18],GI50 [19],GI50 [20]
CCn1c(-c2ccc(OC)cc2)nc2c1C(=O)c1ccccc1C2=O,> 100 µM (inactive),> 100 µM (inactive),> 100 µM (inactive),> 100 µM (inactive),> 100 µM (inactive),> 100 µM (inactive),> 100 µM (inactive),> 100 µM (inactive),> 100 µM (inactive),> 100 µM (inactive),> 100 µM (inactive),> 100 µM (inactive),> 100 µM (inactive),> 100 µM (inactive),> 100 µM (inactive),> 100 µM (inactive),61.1 µM (inactive),> 100 µM (inactive),,
COc1cccc(C2c3cc4c(cc3OC3COC(=O)C32)OCO4)c1OC (centres undefined),> 100 µM (inactive),> 100 µM (inactive),83.4 µM (inactive),9.12 µM (inactive),64.6 µM (inactive),> 100 µM (inactive),20.2 µM (inactive),> 100 µM (inactive),,> 100 µM (inactive),,> 100 µM (inactive),> 100 µM (inactive),> 100 µM (inactive),,> 100 µM (inactive),> 100 µM (inactive),> 100 µM (inactive),> 100 µM (inactive),49.4 µM (inactive)
C=C1C(=O)O[C@H]2C1C[C@@H](O)[C@@]1(C)OC1CC[C@@]1(C)O[C@H]21 (some centres undefined),,13.7 µM (inactive),17.9 µM (inactive),,13.9 µM (inactive),> 100 µM (inactive),17.7 µM (inactive),57.9 µM (inactive),8.95 µM (inactive),20.1 µM (inactive),17 µM (inactive),16.3 µM (inactive),13.3 µM (inactive),27.2 µM (inactive),21 µM (inactive),99.1 µM (inactive),,20.6 µM (inactive),,17.6 µM (inactive)
Cc1cc(=O)oc2c(CNC(C(=O)O)C(C)O)c(O)ccc12 (centres undefined),> 100 µM (inactive),> 100 µM (inactive),> 100 µM (inactive),> 100 µM (inactive),> 100 µM (inactive),> 100 µM (inactive),> 100 µM (inactive),> 100 µM (inactive),> 100 µM (inactive),> 100 µM (inactive),> 100 µM (inactive),> 100 µM (inactive),> 100 µM (inactive),> 100 µM (inactive),> 100 µM (inactive),> 100 µM (inactive),> 100 µM (inactive),> 100 µM (inactive),,> 100 µM (inactive)
COP(=O)(OC)[C@@](O)(c1ccccc1)[C@@H](O)[C@H](O)c1ccccc1,> 100 µM (inactive),> 100 µM (inactive),> 100 µM (inactive),> 100 µM (inactive),> 100 µM (inactive),> 100 µM (inactive),36 µM (inactive),> 100 µM (inactive),,> 100 µM (inactive),> 100 µM (inactive),> 100 µM (inactive),42.2 µM (inactive),> 100 µM (inactive),> 100 µM (inactive),> 100 µM (inactive),> 100 µM (inactive),> 100 µM (inactive),> 100 µM (inactive),> 100 µM (inactive)
CC1(C)CC2C=C(C=O)C3(C=O)CC3(C)C2C1 (centres undefined),0.944 µM (active),1.49 µM (inactive),1.94 µM (inactive),0.0333 µM (active),1.73 µM (inactive),10.2 µM (inactive),0.847 µM (active),4.44 µM (inactive),0.378 µM (active),2.54 µM (inactive),1.83 µM (inactive),2.29 µM (inactive),0.582 µM (active),1.12 µM (active),1.75 µM (inactive),4.5 µM (inactive),4.21 µM (inactive),4.39 µM (inactive),,2.07 µM (inactive)
O=[N+]([O-])c1cc([N+](=O)[O-])c(Nn2c3ccccc3c3ccccc32)c([N+](=O)[O-])c1,,1.2 µM (inactive),,3.51 µM (inactive),2.12 µM (inactive),2.82 µM (inactive),,1.86 µM (inactive),0.65 µM (active),1.79 µM (inactive),1.43 µM (inactive),2.17 µM (inactive),3.02 µM (inactive),1.25 µM (inactive),1.56 µM (inactive),1.25 µM (inactive),1.4 µM (inactive),0.622 µM (active),,
c1ccc2c(c1)nc1n2sc2nc3ccccc3n21,> 100 µM (inactive),,,> 100 µM (inactive),> 100 µM (inactive),> 100 µM (inactive),> 100 µM (inactive),> 100 µM (inactive),> 100 µM (inactive),> 100 µM (inactive),> 100 µM (inactive),> 100 µM (inactive),> 100 µM (inactive),> 100 µM (inactive),> 100 µM (inactive),> 100 µM (inactive),> 100 µM (inactive),> 100 µM (inactive),,> 100 µM (inactive)
CCOC(=O)c1sc(N/N=C2\NC(=O)/C(=C/c3ccc([N+](=O)[O-])cc3)S2)nc1C,14.5 µM (inactive),21.8 µM (inactive),26.8 µM (inactive),22.8 µM (inactive),26.1 µM (inactive),28.3 µM (inactive),16.8 µM (inactive),21.5 µM (inactive),,30.4 µM (inactive),24.4 µM (inactive),28.8 µM (inactive),31.8 µM (inactive),25.6 µM (inactive),23.8 µM (inactive),20.4 µM (inactive),18.7 µM (inactive),15.5 µM (inactive),26.1 µM (inactive),24.8 µM (inactive)
CC(C)=C=CC(C)(C)NS(=O)(=O)NC(C)(C)C=C=C(C)C,71.3 µM (inactive),> 100 µM (inactive),,28.2 µM (inactive),> 100 µM (inactive),42.1 µM (inactive),> 100 µM (inactive),80.9 µM (inactive),,> 100 µM (inactive),> 100 µM (inactive),> 100 µM (inactive),> 100 µM (inactive),81.1 µM (inactive),> 100 µM (inactive),> 100 µM (inactive),> 100 µM (inactive),> 100 µM (inactive),> 100 µM (inactive),> 100 µM (inactive)
CCCCC(CCCC)=NNC(=S)SC,,29.6 µM (inactive),65.3 µM (inactive),20.7 µM (inactive),18.9 µM (inactive),26.1 µM (inactive),17.4 µM (inactive),30.3 µM (inactive),,34.2 µM (inactive),33.7 µM (inactive),17.3 µM (inactive),38.9 µM (inactive),40.1 µM (inactive),17.9 µM (inactive),,16.1 µM (inactive),,39.4 µM (inactive),36.4 µM (inactive)
Cc1nc2ccc(C(F)(F)F)cc2nc1NCc1ccc(Cl)c(Cl)c1,13.3 µM (inactive),14.8 µM (inactive),12.5 µM (inactive),16.7 µM (inactive),,16.4 µM (inactive),16.4 µM (inactive),32.3 µM (inactive),17.1 µM (inactive),17.2 µM (inactive),16 µM (inactive),,18.9 µM (inactive),12.9 µM (inactive),17.4 µM (inactive),17.3 µM (inactive),18.1 µM (inactive),14.2 µM (inactive),,
